Reference: patent US9994560B2, “HPTP-β inhibitors” (Aerpio Therapeutics Inc., priority 2014, dated 2018)
Values after ≈ are worked out from the molar mass of the structure shown. Values joined by “and” are separate entries in the source; they are usually repeats but may differ in a detail not shown here. Equal values may be shown once.

Columns and labels:
[1] = Room temperature aqueous solubility with solubilizing agents; format: physicochemical
Source text: The room temperature aqueous solubility (mg/mL) of the compound (4-{(S)-2[(S)-2-methoxycarbonylamino]-3-phenylpropanamido]-2-[2-(thiophen-2-yl)thiazol-4-yl]ethyl}phenylsulfamic acid) in water, HPβCD, Poloxamer 407, and sulfobutylether-β-cyclodextrin, is provided in TABLE III. Solubility in saline for the test compound is reduced presumably due to the common ion effect. All the solubilizing agents tested provided good improvements in aqueous solubility of the test compound.
The solubility (mg/mL) of the test compound in mixtures of HPβCD and PEG400 is illustrated in TABLE IV. Use of either HPβCD or PEG400 individually provided an increase in solubility. However, addition of PEG400 to a mixture of the test compound and HPβCD caused an erosion of solubility, with solubility being inversely proportional to the amount of PEG400.

[2] = test system: human subjects with visual acuity loss due to diabetic macular edema; test: Study of human subjects with diabetic macular edema given the compound subcutaneously, then intravitreal anti-VEGF agent; format: in vivo
Protocol: Described herein is a study of four human subjects with visual acuity loss due to diabetic macular edema (central retinal thickness [CRT] of more than 325 microns and best corrected visual acuity less than 70 letters) that were treated with subcutaneous injections of 5 mg of 4-{(S)-2-[(S)-2-methoxycarbonyl-amino]-3-phenylpropanamido]-2-[2-(thiophen-2-yl)thiazol-4-yl]ethyl}phenylsulfamic acid twice a day for 28 days. […] At any time during the course of the study, investigators could administer additional therapy of intravitreal injection of an anti-VEGF agent, for example, ranibizumab, bevacizumab, and/or aflibercept, if considered by the investigator to be medically necessary. Retinal thickness as measured by ocular coherence tomography and best-corrected visual acuity as measured by a standard vision test (ETDRS) were assessed at regular intervals during the 28 day active treatment phase and through the 2 month post-treatment observation phase, (Screening, Day 1 [baseline], Day 7, Day 14, Day 21, Day 28, Day 42, Day 56 and Day 84). The main efficacy outcomes for the study were change in CRT and visual acuity over time with treatment.
FIG. 47 depicts the results of a study wherein 4 patients received 5 mg of 4-{(S)-2-[(S)-2-methoxycarbonylamino]-3-phenylpropanamido]-2-[2-(thiophen-2-yl)thiazol-4-yl]ethyl}phenylsulfamic acid subcutaneously twice daily for 28 days and subsequently were treated in one or both eyes (7 eyes total) with either ranibizumab (0.3 or 0.5 mg) or aflibercept (2 mg) by intravitreal injection at the discretion of the study investigator.
FIG. 49 depicts the increased visual acuity of a study wherein 4 patients received 5 mg of 4-{(S)-2-[(S)-2-methoxycarbonylamino]-3-phenylpropanamido]-2-[2-(thiophen-2-yl)thiazol-4-yl]ethyl}phenylsulfamic acid subcutaneously twice daily for 28 days, and subsequently were treated with either ranibizumab (0.3 or 0.5 mg) or aflibercept (2 mg) by intravitreal injection at the discretion of the study investigator. FIG. 49 is read as follows. […] The mean change in Visual Acuity was 9 letters, approximately 3 to 5 letters more improvement than seen in the benchmark study of ranibizumab alone depicted in FIG. 48.
FIG. 50 represents the results of a single patient. The eye having the greater Central Foveal Thickness (CFT) was chosen as the study eye. From day 1, the patient was given 5 mg of 4-{(S)-2-[(S)-2-methoxycarbonylamino]-3-phenylpropanamido]-2-[2-(thiophen-2-yl)thiazol-4-yl]ethyl}phenylsulfamic acid subcutaneously twice daily. At week 3 (21 days, indicated by arrow) the fellow eye was treated with 0.5 mg of ranibizumab by injection. At week 6 (42 days, indicated by arrow) the study eye was treated with 0.5 mg of ranibizumab.
FIG. 51 represents the results of a single patient. The eye having the greater CFT was chosen as the Study Eye. The patient from day one was given 5 mg of 4-{(S)-2-[(S)-2-methoxycarbonylamino]-3-phenylpropanamido]-2-[2-(thiophen-2-yl)thiazol-4-yl]ethyl}phenylsulfamic acid subcutaneously twice daily. At week 4 (28 days, indicated by arrow) the fellow eye was rescued with 2 mg of aflibercept. […] At week 6 (42 days, indicated by arrow) the study eye was rescued with 2 mg of aflibercept. […] From onset of the study, a reduction was observed of CFT in the study eye and the fellow eye of approximately 300 μm and 280 μm, respectively.

[3] = test system: Akt phosphorylation, a measure of Tie2 activation; test: Akt phosphorylation ELISA (PathScan Phospho-Akt1 (Ser473) Sandwich ELISA) in HUVECs; format: cell-based, human; conditions: 10 minutes
Protocol: (§1) Human umbilical vein endothelial cells (HUVECs) were isolated freshly from human placenta, grown in endothelial growth medium, and used before passage 6. To evaluate the effects of the compounds on phosphorylation of Tie2 and downstream signaling molecules, cells were serum-starved in endothelial basal medium without added growth factors for 3 hours before stimulation. Cells were treated for 10 minutes with vehicle (DMSO), or compounds A, B, C, or D in DMSO. Cells were lysed in RIPA buffer (150 mM NaCl, 1% IGEPAL CA-630, 0.05% sodium deoxycholate, 0.1% SDS, 20 mM Tris-HCl at pH 7.6, 1 mM EDTA, 1 mM NaF, 1 mM sodium orthovanadate, 5 mM benzamidine) plus complete protease inhibitor cocktail tablets. Tie2 was then immunoprecipitated from cell lysates with a mouse monoclonal antibody (clone 33) and probed sequentially with mouse monoclonal anti-phosphotyrosine (clone 4G10) and anti-Tie2 (clone 33). Whole cell lysates were used to quantify phospho-AKT with the PathScan Phospho-Akt1 (Ser473) Sandwich ELISA Kit according to the manufacturer's instructions. Relative AKT phosphorylation in each experiment was quantified by OD450.
FIG. 45 represents data from an ELISA to determine Akt phosphorylation, a measure of Tie2 activation. Consistent with FIG. 44, compound D had the strongest effect on Tie2 activation, as determined by the high levels (OD450=1.2) of relative Akt phosphorylation even at the lowest dose of compound D (1 μg/mL). […] Akt phosphorylation further increased (OD450=0.45) when 10 μg/mL of compound A was used.

Tie2 = Tie2 phosphorylation, immunoprecipitation and western blot in HUVECs; format: cell-based, human; conditions: HUVECs treated for 10 minutes; anti-phosphotyrosine western blot (FIG. 44)
Protocol: as §1, with “Tie2 was then immunoprecipitated from cell lysates with a mouse monoclonal antibody (clone 33) and probed sequentially with mouse monoclonal anti-phosphotyrosine (clone 4G10) and anti-Tie2 (clone 33).” left out
FIG. 44 is a western blot of Tie2 immunoprecipitated from endothelial cells treated with DMSO control or the indicated compounds (D, C, B, or A), and then sequentially probed with an anti-Tie2 antibody to detect total Tie2 (lower blot) and an anti-phosphotyrosine antibody to detect phosphorylated Tie2 (upper blot). […] An increase in Tie2 phosphorylation compared to the DMSO control was not detected for compounds A, B, and C.

## COC(=O)N[C@@H](Cc1ccccc1)C(=O)N[C@@H](Cc1ccc(NS(=O)(=O)O)cc1)c1csc(-c2cccs2)n1 [Compound D]
[1]; 0% HPβCD, 15% PEG400
  Solubility: 30 mg/mL (≈ 51.1 mM)
[1]; 0% HPβCD, 30% PEG400
  Solubility: 68 mg/mL (≈ 116 mM)
[1]; 15% HPβCD, 0% PEG400
  Solubility: 59 mg/mL (≈ 101 mM)
[1]; 15% HPβCD, 5% PEG400
  Solubility: 57 mg/mL (≈ 97.2 mM)
[1]; 15% HPβCD, 10% PEG400
  Solubility: 34 mg/mL (≈ 57.9 mM)
[1]; 15% HPβCD, 15% PEG400
  Solubility: 6 mg/mL (≈ 10.2 mM)
[2]; 5 mg sc twice daily 28 days, then ranibizumab or aflibercept intravitreal, 14-28 days post anti-VEGF (FIG. 47), listed as 4-{(S)-2-[(S)-2-methoxycarbonylamino]-3-phenylpropanamido]-2-[2-(thiophen-2-yl)t
  Central Foveal Reduction, individual patient eyes: 50-100 μm and 150-200 μm and 200-250 μm and 300-350 μm and 350-400 μm and 450-500 μm
[2]; 5 mg subcutaneously twice a day for 28 days, observed days 28 through 84
  improvement of visual acuity: Improvement of visual acuity in these subjects was observed
[2]; compound sc then anti-VEGF versus ranibizumab alone
  reduction in Central Foveal Thickness relative to ranibizumab injection in the study in FIG. 46: approximately double
[2]; single patient (FIG. 50), 5 mg sc twice daily, fellow eye given 0.5 mg ranibizumab at week 3, by week 4
  fall in CFT of the fellow eye: 350 μm
[2]; single patient (FIG. 50), day 21 to day 28, after ranibizumab to fellow eye
  reduction in CFT in the study eye: approximately 250 μm
[2]; single patient (FIG. 50), week 6, before ranibizumab to study eye
  CFT of the study eye: approximately 775 μm
[2]; single patient (FIG. 50), week 8
  CFT of the study eye: approximately 225 μm
[2]; single patient (FIG. 51)
  reduction of CFT in the fellow eye from onset of the study: ~280 μm
[3]; 1 μg/mL
  relative Akt phosphorylation (OD450): 1.2
[3]; 3 μg/mL
  relative Akt phosphorylation (OD450): 3.1
[3]; 10 μg/mL
  relative Akt phosphorylation (OD450): did not increase further
Tie2
  Tie2 phosphorylation compared to the DMSO control: substantial increase
